According to patent US4861788A, “Antibacterial 1-normon-2-yl-heterocyclic compounds” (Beecham Group plc, priority 1983, dated 1989):
Converted amounts (≈) assume the structure as drawn. Where two headings read alike, the source gives them in different places.

Key:
[1] = tested on: M. hyopneumoniae JF 435; assay: MIC against Mycoplasma in vitro (Friis broth with agarose); type: cell-based; conditions: Mesomycoplasma hyopneumoniae, JF435, 144 h
[2] = tested on: M. hyopneumoniae Str. 11; assay: as above; type: cell-based; conditions: Mesomycoplasma hyopneumoniae
[3] = tested on: M. hyopneumoniae J2206/183^b; assay: as above; type: cell-based; conditions: Mesomycoplasma hyopneumoniae, 144 h
[4] = tested on: M. hyopneumoniae MS 16; assay: as above; type: cell-based; conditions: Mesomycoplasma hyopneumoniae, MS16, 144 h
[5] = tested on: M. hyopneumoniae UCD 1; assay: as above; type: cell-based; conditions: Mesomycoplasma hyopneumoniae, UCD1, 144 h
[6] = tested on: M. hyopneumoniae ATCC 25095; assay: as above; type: cell-based; conditions: Mesomycoplasma hyopneumoniae, ATCC25095, 144 h
[7] = tested on: M. hyopneumoniae NCTC 101101; assay: as above; type: cell-based; conditions: Mesomycoplasma hyopneumoniae, NCTC101101, 144 h
[8] = tested on: M. hyorhinis ATCC 23234; assay: as above; type: cell-based; conditions: Mesomycoplasma hyorhinis, ATCC23234, 144 h
[9] = tested on: M. hyorhinis ATCC 25021; assay: as above; type: cell-based; conditions: Mesomycoplasma hyorhinis, ATCC25021, 144 h
[10] = tested on: M. bovis NCTC 10131; assay: microbe, parasite or virus in culture; type: cell-based; conditions: NCTC10131, 144 h
[11] = tested on: M. gallisepticum S6; assay: MIC against Mycoplasma in vitro (Friis broth with agarose); type: cell-based; conditions: Mycoplasmoides gallisepticum
[12] = tested on: M. pneumoniae ATCC 15492; assay: as above; type: cell-based; conditions: Mycoplasmoides pneumoniae, ATCC15492, 144 h
[13] = tested on: Bacillus subtilis 6633; assay: MIC against human bacteria in vitro (nutrient agar, chocolated horse blood); type: cell-based
Method: (§1) The activity of the normonyl derivaties of the Examples against various bacteria which are important in diseases of humans, was assayed in vitro using serial dilutions in nurient agar with 5% chocolated horse blood.

[14] = tested on: E. coli NCTC 10418; assay: as above; type: cell-based; conditions: Escherichia coli
Method: as §1

[15] = tested on: P. mirabilis 889; assay: as above; type: cell-based
Method: as §1

[16] = tested on: Pasteurella multocida 1633; assay: as above; type: cell-based
Method: as §1

[17] = tested on: Ps. aeruginosa NCTC 10662; assay: as above; type: cell-based; conditions: Pseudomonas aeruginosa
Method: as §1

[18] = tested on: Sarcina lutea 8340; assay: as above; type: cell-based; conditions: Micrococcus luteus, 8340, 18 h
Method: as §1

[19] = tested on: Staph. aureus Russell; assay: as above; type: cell-based; conditions: Staphylococcus aureus
Method: as §1

[20] = tested on: Staph. aureus W2827; assay: as above; type: cell-based; conditions: Staphylococcus aureus
Method: as §1

[21] = tested on: Strep. agalactiae 2788-B; assay: as above; type: cell-based; conditions: Streptococcus agalactiae
Method: as §1

[22] = tested on: Strep. faecalis I; assay: as above; type: cell-based; conditions: Enterococcus faecalis
Method: as §1

[23] = tested on: Strep. spp. 64/848-C; assay: as above; type: cell-based
Method: as §1

[24] = tested on: E. coli E1; assay: MIC against veterinary bacteria in vitro (Diagnostic Sensitivity Test Agar); conditions: Escherichia coli, E1, 18 h
Method: (§2) The activity of the normonyl derivatives of the Examples against various veterinarily important bacteria, was assayed in vitro using two-fold serial dilutions in Diagnostic Sensitivity Test Agar inoculated with 10^4 organisms.

[25] = tested on: Bord. bronchiseptica B08; assay: as above; conditions: Bordetella bronchiseptica, B08, 18 h
Method: as §2

[26] = tested on: Past. multocida PA1; assay: as above; conditions: Pasteurella multocida, PA1, 18 h
Method: as §2

[27] = tested on: Past. multocida PA2; assay: as above; conditions: Pasteurella multocida, PA2, 18 h
Method: as §2

[28] = tested on: Erysipelothrix rhusiopathiae NCTC 8163; assay: as above; conditions: NCTC8163, 18 h
Method: as §2

[29] = tested on: Corynebacterium pyogenes CY1; assay: as above; conditions: CY1, 18 h
Method: as §2

[30] = tested on: Staph. aureus 152 (pen. sens); assay: as above; conditions: Staphylococcus aureus, 18 h
Method: as §2

[31] = tested on: Strep. uberis SPU1; assay: as above; conditions: Streptococcus uberis, SPU1, 18 h
Method: as §2

CC(=CC(=O)NN)CC1OCC(CC2OC2C(C)C(C)O)C(O)C1O (stereo not shown) [Example 9, Monohydrazide A]
MIC [1]: 10 µg/mL (≈ 27.9 µM) | MIC ([2]; STR.11, 144 h): 5 µg/mL (≈ 13.9 µM) | MIC [3]: 10 µg/mL (≈ 27.9 µM) | MIC [4]: 5 µg/mL (≈ 13.9 µM) | MIC [5]: 10 µg/mL (≈ 27.9 µM) | MIC [6]: 5 µg/mL (≈ 13.9 µM) | MIC [7]: 10 µg/mL (≈ 27.9 µM) | MIC [8]: > 10 µg/mL | MIC [9]: 10 µg/mL (≈ 27.9 µM) | MIC [10]: 0.5 µg/mL (≈ 1.39 µM) | MIC ([11]; S6, 144 h): > 10 µg/mL | MIC [12]: > 10 µg/mL | MIC ([13]; Bacillus subtilis, 6633, 18 h): ≥ 100 µg/mL | MIC ([14]; NCTC10418, 18 h): > 100 µg/mL | MIC ([15]; Proteus mirabilis, 889, 18 h): ≥ 100 µg/mL | MIC ([16]; Pasteurella multocida, 1633, 18 h): 10 µg/mL (≈ 27.9 µM) | MIC ([17]; NCTC10662, 18 h): > 100 µg/mL | MIC [18]: > 100 µg/mL | MIC ([19]; 18 h): ≥ 100 µg/mL | MIC ([20]; W2827, 18 h): ≥ 100 µg/mL | MIC ([21]; 2788B, 18 h): ≥ 100 µg/mL | MIC ([22]; 18 h): > 100 µg/mL | MIC ([23]; 18 h): ≥ 100 µg/mL | MIC [24]: > 80 µg/mL | MIC [25]: > 80 µg/mL | MIC [26]: 40 µg/mL (≈ 112 µM) | MIC [27]: 80 µg/mL (≈ 223 µM) | MIC [28]: > 80 µg/mL | MIC [29]: > 80 µg/mL | MIC [30]: 80 µg/mL (≈ 223 µM) | MIC [31]: 80 µg/mL (≈ 223 µM)

CC(=Cc1nnnn1CCCCCCCCC(=O)O)CC1OCC(CC2OC2C(C)C(C)O)C(O)C1O (stereo not shown) [Example 14, Sodium 1-(8-carboxylatooctyl)-5-(1-normon-2-yl)-1H-tetrazole A]
MIC ([1]; M. hyopneumoniae JF 435, 6 days at 37° C, read-out: MIC): > 10 µg/mL | MIC ([2]; 144 h, M. hyopneumoniae Str. 11, 6 days at 37° C, read-out: MIC): > 10 µg/mL | MIC ([3]; M. hyopneumoniae J2206/183^b, 6 days at 37° C, read-out: MIC): > 10 µg/mL | MIC ([4]; M. hyopneumoniae MS 16, 6 days at 37° C, read-out: MIC): > 10 µg/mL | MIC ([5]; M. hyopneumoniae UCD 1, 6 days at 37° C, read-out: MIC): > 10 µg/mL | MIC ([6]; M. hyopneumoniae ATCC 25095, 6 days at 37° C, read-out: MIC): > 10 µg/mL | MIC ([7]; M. hyopneumoniae NCTC 101101, 6 days at 37° C, read-out: MIC): > 10 µg/mL | MIC ([8]; M. hyorhinis ATCC 23234, 6 days at 37° C, read-out: MIC): > 10 µg/mL | MIC ([9]; M. hyorhinis ATCC 25021, 6 days at 37° C, read-out: MIC): > 10 µg/mL | MIC [10]: 5 µg/mL | MIC ([11]; 144 h, M. gallisepticum S6, 6 days at 37° C, read-out: MIC): > 10 µg/mL | MIC ([12]; M. pneumoniae ATCC 15492, 6 days at 37° C, read-out: MIC): > 10 µg/mL | MIC ([13]; human, Bacillus subtilis 6633, 18 hours at 37° C, read-out: MIC): > 128 µg/mL | MIC ([14]; NCTC10418, human, E. coli NCTC 10418, 18 hours at 37° C, read-out: MIC): > 128 µg/mL | MIC ([15]; Proteus mirabilis, human, P. mirabilis 889, 18 hours at 37° C, read-out: MIC): > 128 µg/mL | MIC ([16]; human, Pasteurella multocida 1633, 18 hours at 37° C, read-out: MIC): 64 µg/mL | MIC ([17]; NCTC10662, human, Ps. aeruginosa NCTC 10662, 18 hours at 37° C, read-out: MIC): > 128 µg/mL | MIC ([19]; human, Staph. aureus Russell, 18 hours at 37° C, read-out: MIC): > 128 µg/mL | MIC ([20]; human, Staph. aureus W2827, 18 hours at 37° C, read-out: MIC): > 128 µg/mL | MIC ([21]; human, Strep. agalactiae 2788-B, 18 hours at 37° C, read-out: MIC): > 128 µg/mL | MIC ([22]; human, Strep. faecalis I, 18 hours at 37° C, read-out: MIC): > 128 µg/mL | MIC ([23]; human, Strep. spp. 64/848-C, 18 hours at 37° C, read-out: MIC): > 128 µg/mL | MIC [24]: > 80 µg/mL | MIC [25]: > 80 µg/mL | MIC [26]: 80 µg/mL | MIC [27]: 1.25 µg/mL | MIC [28]: > 80 µg/mL | MIC [29]: > 80 µg/mL | MIC [30]: > 80 µg/mL | MIC [31]: > 80 µg/mL
